A short description of data set [1]: Nonclinical IV and oral pharmacokinetics in rats. The format is in vivo. To be noted: rat, plasma. An excerpt:
Systemic exposure in rats as measured by Cmax and AUClast was dose-dependent.

A further data set relates to CDK4/6. The data set can be described thus: CDK4/6 inhibition in vitro and in vivo studies.
Data set [2] can be described thus: Repeat-dose IV toxicity in dogs. The format is in vivo. As to the method: The magnitude and/or duration of this effect differed among cell lineages but was dose-related in all lineages. Effects on hematopoiesis were readily monitored by peripheral blood cell counts and were reversible when dosing stopped.
In both species, the toxicity profile was similar and the repeat-dose toxicity studies identified no observed adverse effect levels (NOAELs). […] This IV NOAEL was the basis for selecting a starting dose of 6 mg/m^2 for the first clinical trial, which is 1/10th of the lowest safe dose level in any animal study.

Data set [3] has as its system NCI-H69 mice small cell lung cancer (SCLC) xenograft. The data set can be described thus: NCI-H69 small cell lung cancer xenograft study. Type of data set: in vivo. The text has this:
FIG. 61 is a graph of tumor size (cubic millimeters) vs time (days) for a small cell lung cancer xenograft model with various dosing regimens.

The results in this text go back to patent US20160220569A1, “CDK4/6 Inhibitor Dosage Formulations For The Protection Of Hematopoietic Stem And Progenitor Cells During Chemotherapy” (G1 Therapeutics, Inc., priority 2015, published 2016).

Regarding `CN1CCN(c2ccc(Nc3ncc4cc5n(c4n3)C3(CCCCC3)CNC5=O)nc2)CC1` [Compound 1, 2′-((5-(4-methylpiperazin-1-yl)pyridin-2-yl)amino)-7′,8′-dihydro-6′H-spiro[cyclohexane-1,9′-pyrazino[1′,2′:1,5]pyrrolo[2,3-d]pyrimidin]-6′-one], the half-life in data set [1] (both sexes, rats, after IV administration) was roughly 4 h. In data set [1] (oral), the bioavailability is 60 to 70%. In addition, the CDK4/6 inhibitor characterisation entry in the data set on CDK4/6 was “highly potent and selective CDK4/6 inhibitor”. For the same compound, the “dose with clinically significant leukopenia” value in data set [2] (dog, in vivo, 7 days) came out at 300 mg/m^2. The “dose leading to morbidity and mortality” value in data set [2] (dogs, daily doses for 6 days) stood at 900 mg/m^2. For the same compound, the tumor growth suppression result in data set [3] (Compound 1 100 mg/kg qdx5dx4, absence of Topotecan) is on record as “did not have tumor grown suppression”. In data set [3] (Compound 1 10, 50 or 100 mg/kg with Topotecan 0.6 mg/kg), the “tumor suppression vs Topotecan alone” value is recorded as “significantly higher level of tumor suppression”.
